Experimental data as given in US20070203244A1, “INHIBITORS OF MEMBRANE TYPE-1 MATRIX METALLOPROTEINASE FOR THE TREATMENT OF INSULIN-DEPENDENT DIABETES MELLITUS” (priority 2006, published 2007).

Tested on: IS-CD8+ T cells
Test: Homing of DiI-labeled IS-CD8+ T cells into the pancreatic islets of NOD mice
Type: in vivo
Details: 24 h
Experimental: Fluorescent Tracing and Morphometric Analysis—For trafficking studies, IS-CD8^+ T cells were incubated at 1×10^7 cells/ml for 30 min at 37° C. in the dark in complete Click's medium containing 5% fetal calf serum and 0.0075 mg/ml of the fluorescent dye 1,1′-didodecyl-3,3,3′,3′-tetramethylindocarbocyanine perchlorate (DiI; Molecular Probes, Eugene, Oreg.). After incubation, the cells were washed three times with phosphatebuffered saline to remove excess DiI. Labeled IS-CD8^+ cells (1×10^7 cells) were injected intravenously in 0.2 ml of phosphate-buffered saline into irradiated (725 rads, 24 h in advance) NOD mice. Mice were sacrificed 24 h after injection of DiI-labeled cells. The spleen and the pancreata were excised and fixed in 0.1 M periodate-lysine-paraformaldehyde phosphate buffer. The organs were next sucrose-saturated, freeze-molded in OCT compound (Sakura Finetek Inc., Torrance, Calif.), and freeze-sectioned. 7-μm-thick cryostat sections of the entire pancreas were prepared at 60-μm intervals using a Leica CM1900 cryotom. Distribution of DiI-labeled CD8^+ cells within the islets was examined using a fluorescent microscope. At least 100 individual islets per mouse (4-5 mice/experimental group) were examined. The characteristic morphology of the islets is easily identified on the cryosections. DiI-labeled cells were counted within the area relevant to each individual islet (see FIG. 3 for a representative image; the islet-relevant area is depicted by the solid white line, and the islet boundaries are shown by the white dotted line). The position of each IS-CD8^+ labeled cell was determined relative to the islet boundary. The labeled cells localized within the islet boundary were considered to be “inside,” whereas the labeled cells adjacent to the islet but outside of the islet boundary were considered to be “at the entrance.” This method has been described in substantial detail (Savinov, A. Y., et al. (2003), and Savinov, A. Y., et al. (2001), which are herein incorporated by reference in their entirety for their teaching of these methods).
Fluorescent tracing and morphometric analysis—For trafficking studies, IS-CD8^+ T cells were incubated at 1×10^7 cells/ml for 30 min at 37° C. in the dark in the complete Click's medium containing 5% FCS and 0.0075 mg/ml of fluorescent dye 1,1′-didodecyl-3,3,3′,3′-tetramethylindocarbocyanine perchlorate (DiI; Molecular Probes). After incubation, the cells were washed three times with PBS to remove excess DiI. Labeled IS-CD8^+ cells (1×10^7 cells) were intravenously injected in 0.2 ml of PBS into irradiated (725 Rad, 24 h in advance) NOD mice. Mice were sacrificed 24 h after injection of DiI-labeled cells. […] In 24 h, the spleen and the pancreata were excised and fixed in 0.1 M periodate-lysine-paraformaldehyde phosphate buffer. The organs were next sucrose-saturated, freeze-molded in OCT compound (Sakura Finetek Inc.) and freeze-sectioned. 7-μm-thick cryostat sections of the entire pancreas were prepared at the 60 μm intervals using a Leica CM1900 cryotom. Distribution of DiI-labeled CD8^+ cells within the islets was examined using a fluorescent microscope. At least 100 individual islets per mouse, 4-5 mice per each experimental group, were examined. The characteristic morphology of the islets is easily identified on the cryosections. DiI-labeled cells were counted within the area relevant to each individual islet. The position of each IS-CD8^+ labeled cell was determined relative to the islet boundary. […]

CC1(C)SCCN(S(=O)(=O)c2ccc(Oc3ccncc3)cc2)[C@H]1C(=O)NO [AG3340]
IS-CD8+ cells found inside the islets (Example 1: cells co-incubated 2 h with AG3340 50 μM before injection): smaller number of cells | reduction in the T cell homing (Example 2: AG3340 1 mg/kg i.v. 30 min before cells): 50% | homing of IS-CD8+ cells inside the islets (Example 3: inhibitor i.p. before cells, SB-3CT and EGCG at much higher concentrations than AG3340): several-fold less cells
